The target in test [1] is human 5-HT2A serotonin receptor (Homo sapiens (Human), UniProt P28223). As to the kind of experiment: Radioligand binding ([3H]-ketanserin) to cloned human 5-HT2A receptor expressed in HEK-293 EBNA cells. As to conditions: membranes of transfected HEK-293 EBNA cells, 1.1 nM [3H]-ketanserin, 1 h at RT. Put shortly: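 Membranes from transiently transfected HEK-293 EBNA cells incubated 1 h at RT with 1.1 nM [3H]-ketanserin (5-HT2A, 15 μg protein/well, Tris/MgCl2/EGTA pH 7.4) or 0.5 nM [3H]-spiperone (D3, 7.5 μg/well, Tris/NaCl/MgCl2/KCl/CaCl2 pH 7.4) plus test compound at 10 μM-0.1 nM. Nonspecific binding with 10 μM spiperone; filtration, Ki via Cheng-Prusoff.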

The target in test [2] is human D3 dopamine receptor (Homo sapiens (Human), UniProt P35462). As to the kind of experiment: Radioligand binding ([3H]-spiperone) to cloned human D3 receptor expressed in HEK-293 EBNA cells. As to conditions: membranes of transfected HEK-293 EBNA cells, 0.5 nM [3H]-spiperone, 1 h at RT. An outline of the steps:
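Membranes from HEK-293 EBNA cells transiently transfected with human D3 receptor, incubated 1 h at RT with ~0.5 nM [3H]-spiperone and ten compound concentrations (10 μM-0.1 nM); nonspecific binding with 10 μM spiperone. Filtered, scintillation counted; IC50 from four-parameter fit, Ki via Cheng-Prusoff using saturation Kd.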

The source of these data is patent US8829029B2, “Dual modulators of 5HT2A and D3 receptors” (Hoffmann-La Roche Inc., priority 2008, dated 2014).

human D3 dopamine receptor, sequence (P35462 whole entry): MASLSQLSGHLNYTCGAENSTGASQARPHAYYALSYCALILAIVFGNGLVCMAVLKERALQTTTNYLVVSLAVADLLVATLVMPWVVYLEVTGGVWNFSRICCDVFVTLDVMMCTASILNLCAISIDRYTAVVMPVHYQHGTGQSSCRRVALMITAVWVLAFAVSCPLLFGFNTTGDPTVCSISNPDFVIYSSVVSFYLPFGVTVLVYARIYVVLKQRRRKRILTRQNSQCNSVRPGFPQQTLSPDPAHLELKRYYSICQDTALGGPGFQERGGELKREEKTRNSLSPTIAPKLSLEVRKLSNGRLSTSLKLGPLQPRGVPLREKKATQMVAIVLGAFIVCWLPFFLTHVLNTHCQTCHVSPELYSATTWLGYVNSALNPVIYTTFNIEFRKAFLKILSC

One may read the Ki as a dissociation constant, usually derived from enzyme kinetics or from competition with a known ligand. Regarding `O=C(C[C@@H]1CC[C@@H](O)C1)N[C@H]1CC[C@H](CCN2CCC(c3noc4cc(F)c(F)cc34)CC2)CC1` [Example 70, N-trans-(4-{2-[4-(5,6-Difluoro-benzo[d]isoxazol-3-yl)-piperidin-1-yl]-ethyl}-cyclohexyl)-2-((1R,3R)-3-hydroxy-cyclopentyl)-acetamide], the inhibition constant (Ki) is 11.4 nM in test [1] and 19.8 nM in test [2].
Turning to `O=C(N[C@H]1CC[C@H](CCN2CCC(c3noc4cc(F)c(F)cc34)CC2)CC1)C1CCOCC1` [Example 71, Tetrahydro-pyran-4-carboxylic acid trans-(4-{2-[4-(5,6-difluoro-benzo[d]isoxazol-3-yl)-piperidin-1-yl]-ethyl}-cyclohexyl)-amide], the results for the Ki in test [1] and in test [2] were 7.86 nM and 18.2 nM, respectively.
The corresponding values for `O=C(CC1OCCCO1)N[C@H]1CC[C@H](CCN2CCC(c3noc4cc(F)c(F)cc34)CC2)CC1` [Example 72, N-trans-(4-{2-[4-(5,6-Difluoro-benzo[d]isoxazol-3-yl)-piperidin-1-yl]-ethyl}-cyclohexyl)-2-[1,3]dioxan-2-yl-acetamide] are 9.39 nM and 13.5 nM.
For `CC(=O)N[C@H]1CC[C@H](CCN2CCC(c3noc4cc(C)ccc34)CC2)CC1` [Example 73, N-trans-(4-{2-[4-(6-Methyl-benzo[d]isoxazol-3-yl)-piperidin-1-yl]-ethyl}-cyclohexyl)-acetamide] the same measures were 16.8 nM and 9.28 nM.
For “N-trans-(4-{2-[4-(6-Chloro-benzo[d]isoxazol-3-yl)-piperidin-1-yl]-ethyl}-cyclohexyl)-2-trans (4-methoxy-cyclohexyl)-acetamide [Example 35]” the same measures were 9.64 nM and 11.6 nM.
